Measurements reported in US20250346938A1, “ATP-DEPENDENT C-TERMINAL MODIFICATION OF POLYPEPTIDES” (Wisconsin Alumni Research Foundation, priority 2024, published 2025).

Tests used:
M ccB [1] = experiment: MccB-catalyzed C-terminal thioesterification / Cys ligation of TeCH-tag fusion proteins (intact protein LC-MS); type: biochemical, E. coli
Procedure: M ccB-mediated ligation of GFP-MccA-N7G protein substrates. GFP-M ccA-N7G variant (50 μM) was incubated with 5 μM MccB, 5 mM ATP, and the appropriate concentration of cysteine or Mesna/TCEP in reaction buffer (25 mM Tris pH 8.0, 10 mM M gCl2). Reactions were incubated at room temperature for the indicated times. For labeling time course experiments, reactions were quenched with the addition of an equivalent volume of 0.6% TFA.

M ccB [2] = experiment: One-pot expressed protein ligation of GFP-TeCH with N-terminal Cys peptide CGAGS-azidoAla; type: biochemical, E. coli; conditions: MccB, ATP, Mesna
LjM ccB = experiment: C-terminal thioesterification of MccA-N7G peptides by L. johnsonii MccB (LC-MS); type: biochemical; conditions: LjMccB, ATP, Mesna, within 16 h
Ubc9 = biological target: T1, Ubc9 (Homo sapiens, UniProt P63279); experiment: Ubc9-catalyzed lysine acylation (LACE) of GFP-LACE-tag with MccB-generated thioesters; type: biochemical
T1 construct: Ubc9; Calc: 20,632 Da (M et loss); Observed: 20,632 Da, 20,810 Da (N-gluconylation); made in house; host or cells: E. coli BL21 (DE3)
Procedure: For larger scale synthesis of MLGLRGG-Mes (HsLACE3-M es) (SEQ ID NO: 88), identical reaction conditions and reagent concentrations were used in a volume of […]. Reactions were quenched by addition of trifluoroacetic acid (TFA) to 1% final concentration and were desalted on SOLA HRP C18 solid-phase extraction columns (10 mg format, Thermo Fisher Scientific). Columns were conditioned with 100% acetonitrile ([…]) and equilibrated with 0.1% TFA (2× 1 mL). The acidified sample was then loaded onto the column. The column was washed with 0.1% TFA (2×1 mL) and eluted with 80% acetonitrile/20% water ([…]). The eluted peptide thioester was dried in a vacuum concentrator (SpeedV ac SPD 130DLX, Thermo Fisher Scientific) and dissolved in water. The recovered peptide was quantified using the Pierce Quantitative Fluorometric Peptide A ssay Kit (Thermo Fisher Scientific). Typical recovery from desalting was 50%.
Lysine acylation using conjugating enzymes (LACE) of GFP-LACE-tag using M ccB-generated thioesters. GFP-LACE-tag ([…]), U bc9 ([…]), MLGLRGG-Mes (SEQ ID NO: 88) or other C-terminal thioesters as indicated in the text ([…]) were incubated in reaction buffer (100 mM HEPES, pH 8.0, 50 mM K CI) at 30° C. for 16 h. For pH optimization, reaction buffer was either 100 mM HEPES, pH 7.6, 50 mM KCl or 100 mM HEPES, pH 8.0, 50 mM KCl. […]

E. coli M ccB [3] = experiment: Enzyme-coupled pyrophosphate (PPi) release assay, E. coli MccB; type: biochemical
Description: FIG. 31. Enzyme-coupled pyrophosphate assay for detection of M ccB-catalyzed pyrophosphate release. M ccB-catalyzes release of pyrophosphate, which is converted to phosphate by inorganic pyrophosphatase (PPiase). Purine nucleoside phosphorylase (PN Pase) uses phosphate as a substrate to convert 2-amino-6-mercapto-7-methylpurine ribonucleoside (M ESG) to ribose 1-phosphate and 2-amino-6-mercapto-7-methylpurine, which absorbs at 360 nm.
Purine nucleoside phosphorylase (PNP)/inorganic pyrophosphate (IP)-coupled kinetic assays. The kinetics of M ccB-catalyzed adenylation were characterized using an enzyme-coupled assay for detecting formation of pyrophosphate EnzCheck Pyrophosphate Assay Kit (Thermo Fisher Scientific) (FIG. 31). To screen M ccB for adenylation activity with C-terminal variants of MccA, 5 μM of the appropriate MccB variant was incubated with 0.25 mM of each M ccA variant in a reaction with 0.25 mM ATP, 5 mM M gCl2, 0.5 U/mL purine nucleoside phosphorylase (PNP), and 0.5 U/mL inorganic pyrophosphatase (IP). To screen E. coli, H. pylori, and L. johnsonii M ccB homologs for adenylation activity with MccA homologs, 5 μM of the appropriate MccB enzyme was incubated with 0.25 mM of each M ccA variant in a reaction with 0.25 mM ATP, 5 mM M gCI2, 0.5 U/mL purine nucleoside phosphorylase (PNP), and 0.5 U/mL inorganic pyrophosphatase (IP). Reactions containing HpM ccA-N7G and LjM ccA-N 7G peptides also contained 5 mM M esna and 5 mM TCEP. To collect steady-state kinetics data for individual peptide substrates, the peptide concentration was varied from 0-600 μM in a reaction with 5 μM MccB, 0.25 mM ATP, 5 mM MgCl2, 0.5 U/mL purine nucleoside phosphorylase (PNP), and 0.5 U/mL inorganic pyrophosphatase (IP). […] We therefore repeated measurements for the MccA-N7G peptide using an MccB concentration of […] and a substrate concentration range from 0-100 μM. Reactions were initiated with the addition of M ccB and absorbance at 360 nm was monitored using a Tecan Infinite M 200 plate reader. Initial rates of pyrophosphate production were calculated based on the initial rate of absorbance change and the resulting purine analog extinction coefficient (11,000 M-1 cm-1). Reactions were carried out in triplicate and data analysis was performed using GraphPad Prism 10.

E. coli M ccB [4] = experiment: LC-TOF MS analysis of MccB-catalyzed AMPylation of MccA variants; type: biochemical; conditions: HPLC-MS assay
Procedure: LC-TOF MS analysis of M ccB reactions with synthetic peptide substrates. […] Reactions were incubated for 16 hours at room temperature and quenched with addition of an equivalent volume of 0.6% TFA. These reaction conditions were used for M ccBs from E. coli, H. pylori, L. johnsonii, and H. somni.
LC-TOF MS analysis of M ccB-catalyzed N-AM Pylation of M ccA positional scanning peptide library. MccA variants were synthesized individually in-house (according to Solid-phase peptide synthesis) or were purchased from Peptide2.0. […] Reactions were incubated for 16 hours at room temperature and quenched with addition of an equivalent volume of 0.6% TFA. […] Percent conversion was calculated using peak areas from substrate and product EICs. Raw data are available in the Dryad repository at DOI: 10.5061/dryad.c59zw3rkb.

M ccB [5] = experiment: MccB-catalyzed native chemical ligation of MccA-N7G with Mesna and Cys-Trp; type: biochemical, E. coli; conditions: both Mesna and Cys-Trp in the reaction, 4 hours
Procedure: MccA-N7G thioester exchange with N-terminal Cys peptide. C-terminal thioester was prepared in reactions containing 250 μM MccA-N7G, 5 μM MccB, 5 mM ATP, and 5 mM Mesna/TCEP in reaction buffer (25 mM Tris pH 8.0, 10 mM M gCl2). A fter incubating for 16 hours at room temperature, 20 mM Cys-Trp peptide was added to each reaction and incubated for an additional 4 hours. Reactions were quenched with the addition of an equivalent volume of 0.6% TFA.

[6] = biological target: T2, MccA-N7G (E. coli TeCH-tag peptide MRTGNAG)
T2 chain: MRTGNAG

T1 sequence (P63279 with tags, fused parts or gaps): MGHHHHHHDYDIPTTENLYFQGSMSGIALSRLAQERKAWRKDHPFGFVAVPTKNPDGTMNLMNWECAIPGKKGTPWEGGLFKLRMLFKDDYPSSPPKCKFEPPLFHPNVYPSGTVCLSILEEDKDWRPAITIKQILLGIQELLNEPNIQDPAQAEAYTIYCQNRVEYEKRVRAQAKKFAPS
Sequence of LjM ccB (as listed by the source): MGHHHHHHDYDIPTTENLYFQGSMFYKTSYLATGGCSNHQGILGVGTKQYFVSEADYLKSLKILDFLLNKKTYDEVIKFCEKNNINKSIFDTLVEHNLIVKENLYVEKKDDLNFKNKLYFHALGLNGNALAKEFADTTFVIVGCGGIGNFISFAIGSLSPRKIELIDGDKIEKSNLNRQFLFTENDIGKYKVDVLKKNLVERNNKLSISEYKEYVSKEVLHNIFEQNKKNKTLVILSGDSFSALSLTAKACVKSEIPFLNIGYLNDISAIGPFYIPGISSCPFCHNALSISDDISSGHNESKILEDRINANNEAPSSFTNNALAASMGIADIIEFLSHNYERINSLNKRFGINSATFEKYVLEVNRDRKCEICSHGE

GFP-TeCH-tag: Cys-free GFP fused to MccA-N7G TeCH-tag (SEQ ID NO: 73)
conversion to the Mesna thioester (M ccB [1]; 5 mM Mesna, 5 mM ATP, 30 min): near-quantitative | Cys ligation yield (M ccB [1]; ATP (5 mM), Cys (5 mM), 1 h): 99% | time to complete conversion to thioester (M ccB [1]; ATP (5 mM), Mesna (5 mM)): 1 h | modification with azide-bearing peptide CGAGS-3-azido-Ala (M ccB [2]): quantitatively modified

MHRIM KG (MHRIMKG) [LjM ccA-N7G]
conversion to C-terminal thioester, yield (LjM ccB): > 97%

MLGLRGG (listed as Histophilus somni) [HsLACE3]
modification of the LACE-tagged protein (Ubc9; HsMccB-generated thioester after C18 spin column thiol removal): 94% | conversion to modified GFP-LACE (Ubc9; one-pot and telescoped HsMccB/Ubc9 reactions): 1-15%

MRTGNAG [MccA-N7G]
stimulation of PPi formation (E. coli M ccB [3]; MccA C-terminal variant as substrate for MccB): substantial stimulation | Km (E. coli M ccB [3]; initial fitting, 5 μM MccB, peptide 0-600 μM, pyrophosphate release, read-out: apparent KM): 8.9 µM | formation of stably AMPylated product (E. coli M ccB [4]): no stably A M Pylated product was observed | conversion to MccA-N7G-CW, yield (M ccB [5]): 82%

B1: E. coli MccB (protein)
chain: MGHHHHHHDYDIPTTENLYFQGSMDYILGRYVKIARYGSGGLVGGGGKEQYVEDLALWENIIKTAYCFITPSSYTAALETVNIPEKDFSNCFRFLKENFFIIPSEYNNSTENNRYSRNFLHYQSYGANPVLVQDKLKDAKVVILGCGGIGNHVSVILATSGIGEIILIDNDQIENTNLTRQVLFSENDVGKNKTEVIKRELLKRNSEISVSEIALNINDYTDLHKVPEADIWVVSADHPFNLINWVNKYCVRANQPYINAGYVNDIAVFGPLYVPGKTGCYECQKVVADLYGSEKENIDHKIKLINSRFKPATFAPVNNVAAALCAADVIKFIGKYSEPLSLNKRIGIWSDEIKIHSQNMGRSPVCSVCGNRM
apparent KM, enzyme-coupled pyrophosphate release assay (steady-state kinetics) [6]: 8.9 ± 0.9 µM
